Data taken from ChEMBL document CHEMBL5537151, “Design, synthesis and bioactivity evaluation of novel fusion peptides and their CPT conjugates inducing effective anti-tumor responses on HER2 positive tumors” (Eur J Med Chem, 2024).
The source made the active and inactive calls. No cut-off for these calls is given here. Peptide text beside a SMILES is read from it. * marks the point of attachment. X1 = CCC1(C(=O)OCCS*)C(=O)OCc2c1cc1n(c2=O)Cc2cc3ccccc3nc2-1

Key:
SK-BR-3 [1] = test: Induction of apoptosis in human SK-BR-3 cells assessed as live cells at 1 uM incubated for 24 hrs by Annexin V-FITC/PI staining based flow cytometry analysis (reference value: 94.6%); type: functional
SK-BR-3 [2] = test: Induction of apoptosis in human SK-BR-3 cells assessed as early apoptotic cells at 1 uM incubated for 24 hrs by Annexin V-FITC/PI staining based flow cytometry analysis (reference value: 2.80%); type: functional
SK-BR-3 [3] = test: Induction of apoptosis in human SK-BR-3 cells assessed as downregulation of XIAP protein expression at 2.5 to 5 uM incubated for 24 hrs by Western blot analysis; type: functional, cell-based; details: dose 2.5-5 µM
SK-BR-3 [4] = test: Induction of apoptosis in human SK-BR-3 cells assessed as downregulation of cIAP1 protein expression at 2.5 to 5 uM incubated for 24 hrs by Western blot analysis; type: functional, cell-based; details: dose 2.5-5 µM
SK-BR-3 [5] = test: Induction of apoptosis in human SK-BR-3 cells assessed as downregulation of XIAP protein expression at 2.5 uM by Western blot analysis; type: functional, cell-based; details: time 24-48 hrs, TDE = time-dependent effect
SK-BR-3 [6] = test: Induction of apoptosis in human SK-BR-3 cells assessed as downregulation of cIAP1 protein expression at 2.5 uM by Western blot analysis; type: functional, cell-based; details: time 24-48 hrs, TDE = time-dependent effect
SK-BR-3 [7] = test: Induction of apoptosis in human SK-BR-3 cells assessed as caspase-3 activation by measuring increase in green fluorescence incubated for 24 hrs by GreenNuc substrate/Hoechst 33342 staining based fluorescence microscopic analysis; type: functional, cell-based
SK-BR-3 [8] = test: Induction of apoptosis in human SK-BR-3 cells assessed as increase in ROS level by flow cytometry analysis; type: functional, cell-based
[9] = Drug localization in lysosome of human SK-BR-3 cells assessed as increase in green fluorescence of FITC at 10 uM incubated for 6 hrs by FITC/Lysotracker red dye based laser confocal microscopic analysis; type: ADME, subcellular; details: sk-br-3, 6 h
[10] = Drug localization in lysosome of human SK-BR-3 cells assessed as increase in red fluorescence of lysosomal dye at 10 uM incubated for 6 hrs by FITC/Lysotracker red dye based laser confocal microscopic analysis; type: ADME, subcellular; details: sk-br-3, 6 h
[11] = Drug release in human SK-BR-3 cells assessed as cathepsin-mediated SMAC polypeptide release at 10 uM incubated for 6 hrs by FITC/Lysotracker red dye based laser confocal microscopic analysis; type: ADME, cell-based; details: sk-br-3, 6 h
[12] = Drug release in human SK-BR-3 cells assessed as cathepsin-mediated camptothecin release by measuring increase in blue fluorescence at 10 uM incubated for 6 hrs by FITC/Lysotracker red dye based laser confocal microscopic analysis; type: ADME, cell-based; details: sk-br-3, 6 h
[13] = biological target: T1, DNA topoisomerase 1 (Homo sapiens) (UniProt P11387); test: Inhibition of topoisomerase 1 (unknown origin) assessed as reduction in DNA relaxation by measuring increase in supercoiled DNA level pretreated for 20 mins in water bath followed by pBR322 DNA addition and measured after 30 mins by agarose gel electrophoresis; details: dose 1-100 µM, time 50.0 min
T1 sequence (whole entry): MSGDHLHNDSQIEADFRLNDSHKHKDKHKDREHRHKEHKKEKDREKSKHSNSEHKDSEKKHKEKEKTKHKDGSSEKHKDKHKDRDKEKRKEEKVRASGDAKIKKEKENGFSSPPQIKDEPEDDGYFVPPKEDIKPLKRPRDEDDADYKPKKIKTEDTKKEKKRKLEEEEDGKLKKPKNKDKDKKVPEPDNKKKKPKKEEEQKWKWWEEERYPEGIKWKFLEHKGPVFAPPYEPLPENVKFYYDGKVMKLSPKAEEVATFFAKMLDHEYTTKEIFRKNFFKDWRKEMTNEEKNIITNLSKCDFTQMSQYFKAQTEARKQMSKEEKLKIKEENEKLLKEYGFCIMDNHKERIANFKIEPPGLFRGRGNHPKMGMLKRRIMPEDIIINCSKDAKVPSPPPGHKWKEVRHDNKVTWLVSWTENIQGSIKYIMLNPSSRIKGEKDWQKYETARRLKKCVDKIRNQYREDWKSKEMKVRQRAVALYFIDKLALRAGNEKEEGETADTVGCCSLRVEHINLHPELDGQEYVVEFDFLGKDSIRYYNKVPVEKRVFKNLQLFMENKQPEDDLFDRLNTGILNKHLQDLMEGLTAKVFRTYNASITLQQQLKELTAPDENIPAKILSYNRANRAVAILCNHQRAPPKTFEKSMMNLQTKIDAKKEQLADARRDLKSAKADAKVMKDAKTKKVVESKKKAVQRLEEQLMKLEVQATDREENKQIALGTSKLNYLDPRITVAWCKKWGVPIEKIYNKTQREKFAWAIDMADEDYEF

[14] = Toxicity in nude mouse xenografted with human SK-BR-3 cells assessed as increase in ALT level at 8 umol/kg, iv administered every 3 days for 14 days; type: organism-based; details: in vivo, 336 h, dose 8 µmol/kg, time 14 day
[15] = Toxicity in nude mouse xenografted with human SK-BR-3 cells assessed as change in blood urea nitrogen level at 8 umol/kg, iv administered every 3 days for 14 days; type: organism-based; details: in vivo, 336 h, dose 8 µmol/kg, time 14 day
[16] = Toxicity in nude mouse xenografted with human SK-BR-3 cells assessed as change in alkaline phosphatase level at 8 umol/kg, iv administered every 3 days for 14 days; type: organism-based; details: in vivo, 336 h, dose 8 µmol/kg, time 14 day
[17] = Toxicity in nude mouse xenografted with human SK-BR-3 cells assessed as change in total protein level at 8 umol/kg, iv administered every 3 days for 14 days; type: organism-based; details: in vivo, 336 h, dose 8 µmol/kg, time 14 day
[18] = Toxicity in nude mouse xenografted with human SK-BR-3 cells assessed as change in globulin level at 8 umol/kg, iv administered every 3 days for 14 days; type: organism-based; details: in vivo, 336 h, dose 8 µmol/kg, time 14 day
[19] = Toxicity in nude mouse xenografted with human SK-BR-3 cells assessed as cell necrosis in liver at 8 umol/kg, iv administered every 3 days for 14 days by H and E staining based analysis; type: organism-based; details: in vivo, 336 h, dose 8 µmol/kg, time 14 day
[20] = Toxicity in nude mouse xenografted with human SK-BR-3 cells assessed as cell necrosis in spleen at 8 umol/kg, iv administered every 3 days for 14 days by H and E staining based analysis; type: organism-based; details: in vivo, 336 h, dose 8 µmol/kg, time 14 day
[21] = Toxicity in nude mouse xenografted with human SK-BR-3 cells assessed as cell necrosis in lung at 8 umol/kg, iv administered every 3 days for 14 days by H and E staining based analysis; type: organism-based; details: in vivo, 336 h, dose 8 µmol/kg, time 14 day
[22] = Toxicity in nude mouse xenografted with human SK-BR-3 cells assessed as cell necrosis in kidney at 8 umol/kg, iv administered every 3 days for 14 days by H and E staining based analysis; type: organism-based; details: in vivo, 336 h, dose 8 µmol/kg, time 14 day
[23] = Toxicity in nude mouse xenografted with human SK-BR-3 cells assessed as inflammatory cell infiltration in liver at 8 umol/kg, iv administered every 3 days for 14 days by H and E staining based analysis; type: organism-based; details: in vivo, 336 h, dose 8 µmol/kg, time 14 day
[24] = Toxicity in nude mouse xenografted with human SK-BR-3 cells assessed as inflammatory cell infiltration in lung at 8 umol/kg, iv administered every 3 days for 14 days by H and E staining based analysis; type: organism-based; details: in vivo, 336 h, dose 8 µmol/kg, time 14 day
[25] = Toxicity in nude mouse xenografted with human SK-BR-3 cells assessed as inflammatory cell infiltration in kidney at 8 umol/kg, iv administered every 3 days for 14 days by H and E staining based analysis; type: organism-based; details: in vivo, 336 h, dose 8 µmol/kg, time 14 day
SK-BR-3 [26] = test: cells; details: Homo sapiens, SK-BR-3, 48 h
Description: Cytotoxicity against HER-positive human SK-BR-3 cells incubated for 48 hrs by CCK-8 assay

NCI-N87 = test: cells; details: Homo sapiens, NCI-N87, 48 h
Description: Cytotoxicity against HER-positive human NCI-N87 cells incubated for 48 hrs by CCK-8 assay

In the case of CC[C@H](C)[C@H](NC(=O)[C@@H]1CCCN1C(=O)[C@@H](NC(=O)[C@H](C)N)C(C)C)C(=O)N[C@@H](C)C(=O)N[C@@H](CCC(N)=O)C(=O)N[C@@H](CCCCN)C(=O)N[C@@H](CSSCCOC(=O)C1(CC)C(=O)OCc2c1cc1n(c2=O)Cc2cc3ccccc3nc2-1)C(=O)NCC(=O)N[C@@H](Cc1ccccc1)C(=O)N[C@@H](CC(C)C)C(=O)NCC(=O)N[C@@H](CC(N)=O)C(=O)N1CCC[C@H]1C(=O)N[C@@H](CC(N)=O)C(=O)N[C@@H](Cc1c[nH]c2ccccc12)C(=O)NCC(=O)N[C@@H](CCCNC(=N)N)C(=O)N[C@@H](CO)C(=O)N[C@@H](Cc1c[nH]c2ccccc12)C(=O)N[C@@H](Cc1ccc(O)cc1)C(=O)N[C@@H](CC(N)=O)C(=O)N[C@@H](CCC(N)=O)C(=O)N[C@@H](CCCNC(=N)N)C(=O)N[C@@H](Cc1ccccc1)C(=O)N[C@@H](CCCCN)C(N)=O (some centres not stated) (H-AVPIAQKC(X1)GFLGNPNWGRSWYNQRFK-NH2), the Activity (SK-BR-3 [1]) is reported as 61.1%, the Activity (SK-BR-3 [2]) is reported as 26% and the Activity (SK-BR-3 [3]) is reported as “Active”. For the same compound, the Activity (SK-BR-3 [4]) was “Active”, the Activity (SK-BR-3 [5]) was “Tde” and the Activity (SK-BR-3 [6]) was “Tde”. The Activity (SK-BR-3 [7]) was “Active”, the Activity (SK-BR-3 [8]) was “Active” and the Drug uptake [9] was “Active”. The Drug uptake [10] was “Active”, the Drug metabolism [11] was “Metabolite_Detected” and the Drug metabolism [12] was “Metabolite_Detected”. For the same compound, the inhibition [13] was “Dose-Dependent Effect”, the Activity [14] was “Toxic” and the Activity [15] was “Non-Toxic”. For the same compound, the Activity [16] was “Non-Toxic”, the Activity [17] was “Non-Toxic” and the Activity [18] was “Non-Toxic”. For the same compound, the Activity [19] was “Non-Toxic”, the Activity [20] was “Non-Toxic” and the Activity [21] was “Non-Toxic”. For the same compound, the Activity [22] was “Non-Toxic”, the Activity [23] was “Non-Toxic” and the Activity [24] was “Non-Toxic”. The Activity [25] was “Non-Toxic”, the IC50 (SK-BR-3 [26]) was 530 nM and the IC50 (NCI-N87) was 1580 nM.
